Measurements as given in ChEMBL document CHEMBL1687752, “Impact of antifungal prophylaxis on colonization and azole susceptibility of Candida species” (2009).
Converted amounts (≈) assume the structure as drawn.

test system: Nakaseomyces glabratus; assay: Antifungal activity against Candida glabrata isolated from HSCT recipient 270 with acute or chronic GVHD mouth receiving antifungal drug after 108 days prophylaxis by broth microdilution method; type: functional; settings: not given

| Structure (SMILES) | MIC [µg/mL] |
| --- | --- |
| OC(Cn1cncn1)(Cn1cncn1)c1ccc(F)cc1F [FLUCONAZOLE] | 8 (≈ 26.1 µM) |

test system: Nakaseomyces glabratus; assay: Antifungal activity against Candida glabrata isolated from neutropenic subject 1331 with AML or MDS pharynx receiving antifungal drug after 21 days prophylaxis by broth microdilution method; type: functional; settings: 504 h

| Structure (SMILES) | MIC [µg/mL] |
| --- | --- |
| OC(Cn1cncn1)(Cn1cncn1)c1ccc(F)cc1F [FLUCONAZOLE] | > 64 |

test system: Pichia kudriavzevii; assay: Antifungal activity against 14 days cultured Candida krusei isolated from neutropenic subject with AML or MDS stool after 12 days of prophylaxis by broth microdilution method; type: functional; settings: not given

| Structure (SMILES) | MIC [µg/mL] |
| --- | --- |
| OC(Cn1cncn1)(Cn1cncn1)c1ccc(F)cc1F [FLUCONAZOLE] | 64 (≈ 209 µM) |

test system: Nakaseomyces glabratus; assay: Antifungal activity against Candida glabrata isolated from neutropenic subject 1318 with AML or MDS stool after 36 days prophylaxis by broth microdilution method; type: functional; settings: not given

| Structure (SMILES) | MIC [µg/mL] |
| --- | --- |
| OC(Cn1cncn1)(Cn1cncn1)c1ccc(F)cc1F [FLUCONAZOLE] | 4 (≈ 13.1 µM) |

test system: Pichia kudriavzevii; assay: Antifungal activity against Candida krusei isolated from HSCT recipients with acute or chronic GVHD prior to initiation of posaconazole therapy assessed as maximum MIC by broth microdilution method; type: functional; settings: not given

| Structure (SMILES) | MIC [µg/mL] |
| --- | --- |
| OC(Cn1cncn1)(Cn1cncn1)c1ccc(F)cc1F [FLUCONAZOLE] | 64 |

test system: Pichia kudriavzevii; assay: Antifungal activity against Candida krusei isolated from HSCT recipients with acute or chronic GVHD prior to initiation of fluconazole therapy assessed as maximum MIC by broth microdilution method; type: functional; settings: not given

| Structure (SMILES) | MIC [µg/mL] |
| --- | --- |
| OC(Cn1cncn1)(Cn1cncn1)c1ccc(F)cc1F [FLUCONAZOLE] | 64 |

test system: Nakaseomyces glabratus; assay: Antifungal activity against Candida glabrata isolated from HSCT recipients with acute or chronic GVHD receiving fluconazole assessed as maximum MIC by broth microdilution method; type: functional; settings: not given

| Structure (SMILES) | MIC [µg/mL] |
| --- | --- |
| OC(Cn1cncn1)(Cn1cncn1)c1ccc(F)cc1F [FLUCONAZOLE] | 64 |

test system: Nakaseomyces glabratus; assay: Antifungal activity against Candida glabrata isolated from neutropenic subjects with AML or MDS receiving fluconazole assessed as maximum MIC by broth microdilution method; type: functional; settings: not given

| Structure (SMILES) | MIC [µg/mL] |
| --- | --- |
| OC(Cn1cncn1)(Cn1cncn1)c1ccc(F)cc1F [FLUCONAZOLE] | 16 |

test system: Candida albicans; assay: Antifungal activity against Candida albicans isolated from neutropenic subjects with AML or MDS prior to initiation of fluconazole therapy assessed as maximum MIC by broth microdilution method; type: functional; settings: not given

| Structure (SMILES) | MIC [µg/mL] |
| --- | --- |
| OC(Cn1cncn1)(Cn1cncn1)c1ccc(F)cc1F [FLUCONAZOLE] | 1 |

test system: Pichia kudriavzevii; assay: Antifungal activity against Candida krusei isolated from neutropenic subjects with AML or MDS prior to initiation of posaconazole therapy assessed as maximum MIC by broth microdilution method; type: functional; settings: not given

| Structure (SMILES) | MIC [µg/mL] |
| --- | --- |
| OC(Cn1cncn1)(Cn1cncn1)c1ccc(F)cc1F [FLUCONAZOLE] | 32 |

test system: Candida albicans; assay: Antifungal activity against Candida albicans isolated from neutropenic subjects with AML or MDS receiving posaconazole by broth microdilution method; type: functional; settings: not given

| Structure (SMILES) | MIC50 [µg/mL] | MIC90 [µg/mL] |
| --- | --- | --- |
| OC(Cn1cncn1)(Cn1cncn1)c1ccc(F)cc1F [FLUCONAZOLE] | 0.25 (≈ 0.816 µM) | 0.25 (≈ 0.816 µM) |

test system: Candida albicans; assay: Antifungal activity against Candida albicans isolated from HSCT recipient 462 with acute or chronic GVHD mouth receiving antifungal drug after 112 days prophylaxis by broth microdilution method; type: functional; settings: not given

| Structure (SMILES) | MIC [µg/mL] |
| --- | --- |
| OC(Cn1cncn1)(Cn1cncn1)c1ccc(F)cc1F [FLUCONAZOLE] | 8 (≈ 26.1 µM) |

test system: Candida tropicalis; assay: Antifungal activity against 2 days cultured Candida tropicalis isolated from neutropenic subject with AML or MDS pharynx receiving antifungal therapy for 45 days after 24 days of prophylaxis by broth microdilution method; type: functional; settings: not given

| Structure (SMILES) | MIC [µg/mL] |
| --- | --- |
| OC(Cn1cncn1)(Cn1cncn1)c1ccc(F)cc1F [FLUCONAZOLE] | 0.25 (≈ 0.816 µM) |

test system: Nakaseomyces glabratus; assay: Antifungal activity against Candida glabrata isolated from HSCT recipients with acute or chronic GVHD receiving posaconazole assessed as maximum MIC by broth microdilution method; type: functional; settings: not given

| Structure (SMILES) | MIC [µg/mL] |
| --- | --- |
| OC(Cn1cncn1)(Cn1cncn1)c1ccc(F)cc1F [FLUCONAZOLE] | 64 |

test system: Pichia kudriavzevii; assay: Antifungal activity against Candida krusei isolated from neutropenic subjects with AML or MDS prior to initiation of fluconazole therapy assessed as maximum MIC by broth microdilution method; type: functional; settings: not given

| Structure (SMILES) | MIC [µg/mL] |
| --- | --- |
| OC(Cn1cncn1)(Cn1cncn1)c1ccc(F)cc1F [FLUCONAZOLE] | 32 |

test system: Nakaseomyces glabratus; assay: Antifungal activity against 176 days cultured Candida glabrata isolated from HSCT recipient with acute or chronic GVHD mouth receiving antifungal therapy for 172 days after 114 days of prophylaxis by broth microdilution method; type: functional; settings: not given

| Structure (SMILES) | MIC [µg/mL] |
| --- | --- |
| OC(Cn1cncn1)(Cn1cncn1)c1ccc(F)cc1F [FLUCONAZOLE] | 32 (≈ 104 µM) |

test system: Nakaseomyces glabratus; assay: Antifungal activity against Candida glabrata isolated from HSCT recipients with acute or chronic GVHD prior to initiation of fluconazole therapy assessed as maximum MIC by broth microdilution method; type: functional; settings: not given

| Structure (SMILES) | MIC [µg/mL] |
| --- | --- |
| OC(Cn1cncn1)(Cn1cncn1)c1ccc(F)cc1F [FLUCONAZOLE] | 64 |

test system: Nakaseomyces glabratus; assay: Antifungal activity against Candida glabrata isolated from HSCT recipient 807 with acute or chronic GVHD mouth after 114 days prophylaxis by broth microdilution method; type: functional; settings: not given

| Structure (SMILES) | MIC [µg/mL] |
| --- | --- |
| OC(Cn1cncn1)(Cn1cncn1)c1ccc(F)cc1F [FLUCONAZOLE] | 16 (≈ 52.2 µM) |

test system: Pichia kudriavzevii; assay: Antifungal activity against 6 days cultured Candida krusei isolated from neutropenic subject with AML or MDS stool receiving antifungal therapy for 19 days after 6 days of prophylaxis by broth microdilution method; type: functional; settings: not given

| Structure (SMILES) | MIC [µg/mL] |
| --- | --- |
| OC(Cn1cncn1)(Cn1cncn1)c1ccc(F)cc1F [FLUCONAZOLE] | 64 (≈ 209 µM) |
